Experimental data taken from patent US6632829B2, “Sulfonamides and derivatives thereof that modulate the activity of endothelin” (Texas Biotechnology Corp., priority 1996, dated 2003).
Where “and” joins values, the source holds several entries; their conditions need not be identical. Equal entries are not always repeated.

Legend:
human ETA receptors = molecular target: T1, human ETA receptors (Homo sapiens, UniProt P25101); assay: Endothelin binding inhibition, Binding Test #1: competition with 125I-ET-1 for ETA receptors on TE 671 cell membranes
T1 construct: endogenous in cells; host or cells: TE 671 cells (ATCC HTB 139), membrane preparation
T1 sequence (P25101 21-427): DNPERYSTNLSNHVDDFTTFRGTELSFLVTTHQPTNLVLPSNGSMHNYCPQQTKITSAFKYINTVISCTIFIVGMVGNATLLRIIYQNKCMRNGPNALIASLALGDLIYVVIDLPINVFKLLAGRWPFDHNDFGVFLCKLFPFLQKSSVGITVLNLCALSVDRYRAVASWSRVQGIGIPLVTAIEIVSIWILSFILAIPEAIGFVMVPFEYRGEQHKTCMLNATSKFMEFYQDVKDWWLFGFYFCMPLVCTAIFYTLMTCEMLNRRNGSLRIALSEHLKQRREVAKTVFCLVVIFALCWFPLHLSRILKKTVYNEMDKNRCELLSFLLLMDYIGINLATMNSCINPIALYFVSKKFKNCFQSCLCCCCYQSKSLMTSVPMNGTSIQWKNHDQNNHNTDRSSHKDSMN

human ETB receptor = molecular target: T2, human ETB receptor (Homo sapiens, UniProt P24530); assay: Endothelin binding inhibition, Binding Test #2: competition with 125I-ET-1 for ETB receptors on transfected COS7 cell membranes; details: for inhibition at 100 µM: read-out: ETB % inhibition @ 100 μM, @ 100 μM, incubation at 24° C.
T2 construct: expressed in transfected cells; host or cells: COS7 cells
T2 sequence (P24530 27-442): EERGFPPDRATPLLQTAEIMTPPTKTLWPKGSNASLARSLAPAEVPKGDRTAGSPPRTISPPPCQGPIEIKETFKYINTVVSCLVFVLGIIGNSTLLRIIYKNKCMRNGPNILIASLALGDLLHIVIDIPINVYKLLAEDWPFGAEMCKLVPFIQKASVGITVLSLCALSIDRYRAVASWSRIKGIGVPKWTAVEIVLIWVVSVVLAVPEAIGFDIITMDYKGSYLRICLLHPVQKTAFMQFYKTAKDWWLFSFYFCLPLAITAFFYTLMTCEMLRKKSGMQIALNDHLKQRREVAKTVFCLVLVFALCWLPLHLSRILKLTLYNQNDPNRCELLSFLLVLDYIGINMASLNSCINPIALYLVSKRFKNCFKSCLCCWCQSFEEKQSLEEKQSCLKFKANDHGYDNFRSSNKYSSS
Summary of the method: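 Membranes from COS7 cells transfected with human ETB receptor, prepared in HEPES pH 7.4 with aprotinin, MnCl2/DNase treatment at 37° C for 30 min. Test compounds compete with 125I-labeled ET-1 for receptor binding; membrane used at 1 μg/50 μL binding buffer.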

[1] = incubation at 24° C. (values marked †)
[2] = incubation at 4° C. (values without †)

| Compound | IC50 (human ETA receptors; [1]) | inhibition at 100 µM (human ETB receptor) [%] | IC50 (human ETB receptor; [1]) [µM] | IC50 (human ETA receptors; [2]) [nM] | IC50 (human ETB receptor; [2]) [µM] |
| --- | --- | --- | --- | --- | --- |
| Cc1ccc(OC(=O)c2sccc2S(=O)(=O)Nc2onc(C)c2C)c(C)c1 [N-(3,4-dimethyl-5-isoxazolyl)-2-[(2,4-dimethylphenoxy)carbonyl]thiophene-3-sulfonamide] | 274 nM | 21 |  |  |  |
| CCCc1cc2c(cc1OCc1sccc1S(=O)(=O)Nc1onc(C)c1Br)OCO2 [N-(4-bromo-3-methyl-5-isoxazolyl)-2-{[4,5-(methylenedioxy)-2-propylphenoxy]methyl}thiophene-3-sulfonamide] | 107 nM |  | 0.407 |  |  |
| Cc1noc(NS(=O)(=O)c2ccsc2C(=O)Oc2ccc3c(c2)OCO3)c1Br [N-(4-bromo-3-methyl-5-isoxazolyl)-2-[(3,4-methylenedioxy)phenoxycarbonyl]thiophene-3-sulfonamide] | 7.3 nM |  | 6 |  |  |
| Cc1noc(NS(=O)(=O)c2ccsc2C/C=C/c2ccc3c(c2)OCO3)c1Br [N-(4-bromo-3-methyl-5-isoxazolyl)-2-[trans-(3,4-methylenedioxy)cinnamyl]thiophene-3-sulfonamide] | 140 nM |  | 1.4 |  |  |
| Cc1noc(NS(=O)(=O)c2ccsc2NC(=O)Nc2ccc3c(c2)OCO3)c1Br [N-(4-bromo-3-methyl-5-isoxazolyl)-2-[(3,4-methylenedioxy)phenylureido]thiophene-3-sulfonamide] | 570 nM |  | 1.3 |  |  |
| COc1ccccc1-c1ccsc1S(=O)(=O)Nc1onc(C)c1Br [N-(4-bromo-3-methyl-5-isoxazolyl)-3-(2-methoxyphenyl)thiophene-2-sulfonamide] | 1710 nM |  | 59.1 |  |  |
| Cc1noc(NS(=O)(=O)c2c(Cc3ccc(Cl)cc3)sc3ccccc23)c1C [N-(3,4-dimethyl-5-isoxazolyl)-2-(4-chlorobenzyl)benzo[b]thiophene-3-sulfonamide] | 210 nM |  | 4.7 |  |  |
| Cc1ccc(OC(=O)c2sccc2S(=O)(=O)Nc2onc(C)c2Br)c(C)c1 [N-(4-bromo-3-methyl-5-isoxazolyl)-2-[(2,4-dimethylphenoxy)carbonyl]thiophene-3-sulfonamide] | 291 nM |  | 43.2 |  |  |
| Cc1ccc(CC(=O)c2sccc2S(=O)(=O)Nc2onc(C)c2Cl)c(C)c1 [N-(4-chloro-3-methyl-5-isoxazolyl)-(2,4-dimethylphenylacetyl)thiophene-3-sulfonamide] | 0.4 nM |  | 4.8 |  |  |
| CCc1ccc(-c2ccsc2S(=O)(=O)Nc2onc(C)c2Br)cc1 [N-(4-bromo-3-methyl-5-isoxazolyl)-3-(4-ethylphenyl)thiophene-2-sulfonamide] |  |  | 43.9 | 184 |  |
| N-2-[3,4-(methylenedioxy)phenylacetyl]thiophene-3-sulfonamide | 1800 nM |  | 32.5 |  |  |
| COc1ccc(Cc2sc3ccccc3c2S(=O)(=O)Nc2onc(C)c2Br)cc1 [N-(4-bromo-3-methyl-5-isoxazolyl)-2-(4-methoxybenzyl)benzo[b]thiophene-3-sulfonamide] | 51 nM |  | 1.5 |  |  |
| Cc1cc2c(cc1CC(=O)c1sccc1S(=O)(=O)Nc1onc(C)c1C)OCO2 [N-(3,4-dimethyl-5-isoxazolyl)-2-[2-methyl-4,5-(methylenedioxy)phenylacetyl]thiophene-3-sulfonamide] | 3.28 nM |  | 34.3 |  |  |
| Cc1ccc(CCc2sccc2S(=O)(=O)Nc2onc(C)c2Br)cc1 [N-(4-bromo-3-methyl-5-isoxazolyl)-2-[(4-methyl)phenethyl]thiophene-3-sulfonamide] | 106 nM |  | 40.1 |  |  |

Continued, values first:

| IC50 (human ETA receptors; [1]) | inhibition at 100 µM (human ETB receptor) [%] | IC50 (human ETB receptor; [1]) [µM] | IC50 (human ETA receptors; [2]) [nM] | IC50 (human ETB receptor; [2]) [µM] | Compound |
| --- | --- | --- | --- | --- | --- |
| 3200 nM | 43 |  |  |  | Cc1ccc(OC(=O)c2sccc2S(=O)(=O)Nc2onc(C)c2Cl)cc1 [N-(4-chloro-3-methyl-5-isoxazolyl)-2-[(4-methylphenoxy)carbonyl]thiophene-3-sulfonamide] |
| 190 nM |  | 2.2 |  |  | COc1ccccc1Cc1sc2ccccc2c1S(=O)(=O)Nc1onc(C)c1Br [N-(4-bromo-3-methyl-5-isoxozolyl)-2-(2-methoxybenzyl)-benzo[b]thiophene-3-sulfonamide] |
| 15.9 nM |  | 29.5 |  |  | Cc1cc(C)c(NC(=O)c2sccc2S(=O)(=O)Nc2onc(C)c2Cl)c(-c2ccccc2)c1 [N-(4-chloro-3-methyl-5-isoxazolyl)-2-(2-phenyl-4,6-dimethylphenylaminocarbonyl)thiophene-3-sulfonamide] |
| 0.625 nM |  | 3.69 |  |  | Cc1cc2c(cc1CC(=O)c1sccc1S(=O)(=O)Nc1noc(C)c1Cl)OCO2 [N-(4-chloro-5-methyl-3-isoxazolyl)-2-[2-methyl-4,5-(methylenedioxy)phenylacetyl]thiophene-3-sulfonamide] |
| 0.321 nM and 0.92 nM |  | 16.5 |  |  | COC(=O)c1c(C)cc(C)c(NC(=O)c2sccc2S(=O)(=O)Nc2onc(C)c2Cl)c1C [N-(4-chloro-3-methyl-5-isoxazolyl)-2-(3-methoxycarbonyl-2,4,6-trimethylphenylaminocarbonyl)thiophene-3-sulfonamide] |
| 10.5 nM |  | 14 | 1.16 | 2.93 | Cc1ccc(NC(=O)c2sccc2S(=O)(=O)Nc2onc(C)c2Cl)cc1 [N-(4-chloro-3-methyl-5-isoxazolyl)-2-[(4-tolyl)aminocarbonyl]thiophene-3-sulfonamide] |
| 27 nM |  | 0.14 |  |  | COc1ccc(NC(=O)c2sccc2S(=O)(=O)Nc2onc(C)c2Cl)c(C)c1 [N-(4-chloro-3-methyl-5-isoxazolyl)-2-[4-methoxy-2-methylphenyl)aminocarbonyl]thiophene-3-sulfonamide] |
| 7.3 nM |  | 9.2 |  |  | Cc1noc(NS(=O)(=O)c2ccsc2C(=O)Nc2ccc3c(c2)OCO3)c1Cl [N-(4-chloro-3-methyl-5-isoxazolyl)-2-[3,4-(methylenedioxy)]phenylaminocarbonyl-3-thiophenesulfonamide] |
| 0.238 nM |  | 3.82 |  |  | Cc1cc(C)c(CC(=O)c2sccc2S(=O)(=O)Nc2onc(C)c2Cl)c(C)c1 [N-(4-chloro-3-methyl-5-isoxazolyl)-2-(2,4,6-trimethylphenylacetyl)thiophene-3-sulfonamide] |
| 82.3 nM |  | 2.76 |  |  | Cc1noc(NS(=O)(=O)c2sccc2-c2ccc(CC(C)C)cc2)c1Br [N-(4-bromo-3-methyl-5-isoxazolyl)-3-(4-iso-butylphenyl)thiophene-2-sulfonamide] |
| 128 nM |  | 2.09 |  |  | Cc1noc(NS(=O)(=O)c2ccsc2CC2(c3ccc4c(c3)OCO4)OCCO2)c1Cl [N-(4-chloro-3-methyl-5-isoxazolyl)-2-[β,β-(ethylenedioxy)-3,4-(methylenedioxy)phenethyl]thiophene-3-sulfonamide] |
| 9 nM |  | 13.8 |  |  | Cc1noc(NS(=O)(=O)c2ccsc2C(=O)Nc2cc3c(cc2CC(=O)N(C)C)OCO3)c1Cl [N-(4-chloro-3-methyl-5-isoxazolyl)-2-{2-[(dimethylamino)carbonylmethyl]-4,5-(methylenedioxy)phenylaminocarbonyl}thiophene-3-sulfonamide] |
|  |  |  | 631 | 53.2 | COC(=O)c1sccc1S(=O)(=O)Nc1onc(C)c1Cl [N-(4-chloro-3-methyl-5-isoxazolyl)-2-methoxycarbonylthiophene-3-sulfonamide] |
| 1640 nM |  | 22.8 |  |  | Cc1ccc(OCc2ccsc2S(=O)(=O)Nc2onc(C)c2Br)cc1 [N-(4-bromo-3-methyl-5-isoxazolyl)-3-[(4-methylphenoxy)methyl]thiophene-2-sulfonamide] |
| 1.6 nM |  | 11.3 |  |  | Cc1cc(C)c(NC(=O)c2sccc2S(=O)(=O)Nc2onc(C)c2Cl)c(C)c1 [N-(4-chloro-3-methyl-5-isoxazolyl)-2-(2,4,6-trimethylphenylaminocarbonyl)thiophene-3-sulfonamide] |
| 3 nM |  | 355 |  |  | Cc1cc2c(cc1NC(=O)c1sccc1S(=O)(=O)Nc1onc(C)c1Cl)OCO2 [N-(4-chloro-3-methyl-5-isoxazolyl)-2-[2-methyl-4,5-(methylenedioxy)phenylaminocarbonyl]thiophene-3-sulfonamide] |
| ~100 nM |  | ~6 |  |  | Cc1cc2c(cc1C=CCc1ccsc1S(=O)(=O)Nc1onc(C)c1Br)OCO2 [N-(4-bromo-3-methyl-5-isoxazolyl)-3-[2-methyl-4,5-(methylenedioxy)cinnamyl]thiophene-2-sulfonamide] |
| 96.7 nM |  |  |  | 4.14 | Cc1noc(NS(=O)(=O)c2sccc2CC=Cc2cc3c(cc2COC2CCCCO2)OCO3)c1Br (stereo not drawn) [N-(4-bromo-3-methyl-5-isoxazolyl)-3-{2-[(tetrahydro-4H-pyran-2-yloxy)methyl]-4,5-(methylenedioxy)cinnamyl}thiophene-2-sulfonamide] |
